The record followed here is ChEMBL document CHEMBL6134909 (Eur J Med Chem, 2025).

pEC50: −log10 of the molar value. A value given as a limit tells only on which side of the number the result lay.

Data set [1] is described as follows: Metabolic stability in human liver microsomes assessed as compound remaining at 2 to 10 uM measured after 60 mins in presence of sulfaphenazole/NADPH by LC-MS/MS analysis. Type of data set: ADME, Microsome. Particulars: with sulfaphenazole, dose 2-10 µM, read-out: Stability. A general note: Liver microsomes are a subcellular fraction often used to study metabolism.

Data set [2] in a line: Metabolic stability in human liver microsomes assessed as compound remaining at 2 to 10 uM measured after 60 mins in presence of quinidine/NADPH by LC-MS/MS analysis. The class given is ADME, Microsome. The note with it: with quinidine, dose 2-10 µM, read-out: Stability.
Data set [3] is described as follows: Metabolic stability in human plasma at 2 uM measured after 60 mins by LC-MS/MS analysis. The class given is ADME, cell-free. Particulars: 1 h.
A short description of data set [4]: Metabolic stability in BALB/c mouse liver microsomes assessed as compound remaining at 2 to 10 uM measured after 60 mins in presence of quinidine/NADPH by LC-MS/MS analysis. The note with it: with quinidine, dose 2-10 µM, read-out: Stability. The class given is ADME, Microsome.
A short description of data set [5]: Metabolic stability in human liver microsomes assessed as compound remaining at 2 to 10 uM measured after 60 mins in absence of NADPH by LC-MS/MS analysis. Type of data set: ADME, Microsome. Particulars: dose 2-10 µM, read-out: Stability.
The nature of data set [6]: Metabolic stability in human liver microsomes assessed as compound remaining at 2 to 10 uM measured after 60 mins in presence of NADPH by LC-MS/MS analysis. The class given is ADME, Microsome. Particulars: dose 2-10 µM, read-out: Stability.
Data set [7] can be described thus: Metabolic stability in BALB/c mouse liver microsomes assessed as compound remaining at 2 to 10 uM measured after 60 mins in presence of NADPH by LC-MS/MS analysis. The class given is ADME, Microsome. The note with it: dose 2-10 µM, read-out: Stability.
Data set [8] in a line: Metabolic stability in BALB/c mouse liver microsomes assessed as compound remaining at 2 to 10 uM measured after 60 mins in absence of NADPH by LC-MS/MS analysis. Particulars: dose 2-10 µM, read-out: Stability. The class given is ADME, Microsome.
A short description of data set [9]: Metabolic stability in human liver microsomes assessed as compound remaining at 2 to 10 uM measured after 60 mins in presence of ketoconazole/NADPH by LC-MS/MS analysis. The class given is ADME, Microsome. Particulars: with ketoconazole, dose 2-10 µM, read-out: Stability.
Data set [10] is described as follows: Metabolic stability in BALB/c mouse liver microsomes assessed as compound remaining at 2 to 10 uM measured after 60 mins in presence of furafylline/NADPH by LC-MS/MS analysis. Type of data set: ADME, Microsome. Particulars: with furafylline, dose 2-10 µM, read-out: Stability.
Data set [11] deals with Influenza A virus. The data set can be described thus: Anti-viral activity against Influenza A virus H7N1 pseudotype infected in human A549 cells assessed as inhibition of viral entry incubated for 48 hrs by Neolite Reporter Gene Assay. Type of data set: functional, organism-based. The note with it: H7N1, A549, 48 h. (In general: Reporter assays use an easily measured gene product as a stand-in for the process of interest.)

Data set [12] is described as follows: Metabolic stability in BALB/c mouse liver microsomes assessed as compound remaining at 2 to 10 uM measured after 60 mins in presence of sulfaphenazole/NADPH by LC-MS/MS analysis. Type of data set: ADME, Microsome. Particulars: with sulfaphenazole, dose 2-10 µM, read-out: Stability.
Data set [13] can be described thus: Metabolic stability in BALB/c mouse liver microsomes assessed as compound remaining at 2 to 10 uM measured after 60 mins in presence of ketoconazole/NADPH by LC-MS/MS analysis. Type of data set: ADME, Microsome. The note with it: with ketoconazole, dose 2-10 µM, read-out: Stability.
The nature of data set [14]: Metabolic stability in mouse plasma at 2 uM measured after 60 mins by LC-MS/MS analysis. Type of data set: ADME, cell-free. Particulars: 1 h.
The nature of data set [15]: Cytotoxicity against human A549 cells incubated for 48 hrs by CellTiter-Glo Luminescent Cell Viability Assay. The class given is toxicity, cell-based. A general note: ATP-based viability assays read luminescence as a measure of living cells.
The nature of data set [16]: Metabolic stability in human liver microsomes assessed as compound remaining at 2 to 10 uM measured after 60 mins in presence of furafylline/NADPH by LC-MS/MS analysis. Type of data set: ADME, Microsome. Particulars: with furafylline, dose 2-10 µM, read-out: Stability.
A short description of data set [17]: AUC (infinity) in CD1 mouse at 25 mg/kg, ip. The note with it: in vivo. The class given is ADME, organism-based.
A short description of data set [18]: Apparent volume of distribution in CD1 mouse at 25 mg/kg, ip. Type of data set: ADME, organism-based. Particulars: in vivo.
A short description of data set [19]: Clearance in CD1 mouse at 25 mg/kg, ip. The class given is ADME, organism-based. Particulars: in vivo.
The test system of data set [20] is Influenza A virus. The data set can be described thus: Anti-viral activity against wild-type Influenza A virus H7N1 pseudotype infected in human A549 cells assessed as inhibition of viral entry incubated for 48 hrs by Neolite Reporter Gene Assay. Type of data set: functional, organism-based. The note with it: H7N1, A549, 48 h.
The nature of data set [21]: Tmax in CD1 mouse at 25 mg/kg, ip. Type of data set: ADME, organism-based. Particulars: in vivo.
A short description of data set [22]: Cmax in CD1 mouse at 25 mg/kg, ip. Type of data set: ADME, organism-based. The note with it: in vivo.
A short description of data set [23]: MRT (infinity) in CD1 mouse at 25 mg/kg, ip. The class given is ADME, organism-based. The note with it: in vivo.
A short description of data set [24]: Half life in CD1 mouse at 25 mg/kg, ip. Particulars: in vivo. The class given is ADME, organism-based.

What is called pEC50 is the negative decadic logarithm of the EC50, by convention in mol/L. For orientation: CC50 means the concentration that lowers cell viability or growth by half. Read a low CC50 as greater toxicity to the cells. For `COc1ccc(-c2nc3ncccn3c2NC2CCCCC2)cc1`, the remaining at 1 h, up to 10 µM in data set [1] stood at 32%; in [2], 36.5%; in [4], 4.2%; in [5], 113%; in data set [6], 21.1%; in data set [7], 2.3%. For the same molecule, the remaining at 1 h, up to 10 µM in [8] worked out at 113%; in [9] it was 65.1%; in [10], 12.2%; in data set [12], 4.5%; in data set [13] it was 39.4%; in data set [16], 71%. Further, the Stability entry in data set [3] and in [14] was “Stable” each time. Moreover, the pEC50 in [11] is 7.10. In data set [15], this molecule gave a CC50 at 48 h of over 1250 µM.

One may read the AUC(0-inf) as the area under the concentration-time curve extrapolated to infinity. A high value points to more exposure. One may read the CL/F as clearance divided by bioavailability, as obtained after extravascular dosing. The term Tmax denotes the time from dosing to the highest level. As a reminder, the Cmax is the peak of the concentration-time curve. A word on the MRT inf: it is a mean duration of stay, worked out from the concentration-time curve. The term half-life denotes how long it takes for the measured level to halve. A higher half-life goes with slow decline. The molecule `Oc1ccc(-c2nc3ncccn3c2NC2CCCCC2)c(F)c1` showed an area under the curve AUC(0-inf) in data set [17] of 3.66 µg·h/mL. Moreover, the Vz in data set [18] was 35.639 L/kg. This molecule also gave a CL/F in [19] of 6.84 L/h/kg. The Stability result in [3] and in [14] was “Stable” in each case. Further, the pEC50 in [20] is 6.96; in [11] it was 7.05. For the same molecule, the remaining at 1 h, up to 10 µM in data set [5] was determined as 115%; in data set [6], 68.9%; in data set [7], 72.7%; in [8], 101%. For the same molecule, the Tmax in [21] stood at 0.083 h. Also, the Cmax in data set [22] worked out at 14.5 µg/mL. In addition, the MRT inf in data set [23] was 0.842 h. Besides, the half-life in data set [24] was 3.61 h. Moreover, the CC50 at 48 h in data set [15] was over 100 µM.

With `Fc1ccc(-c2nc3ncccn3c2NC2CCCCC2)cc1F`, the remaining at 1 h, up to 10 µM in data set [1] turned out to be 7.2%; in data set [2] it was 10.9%; in [4], 5.3%; in data set [5], 113%; in data set [6], 2.2%; in data set [7] it was 2.7%. For the same molecule, the remaining at 1 h, up to 10 µM in data set [8] amounted to 114%; in data set [9], 48.8%; in data set [10], 7.3%; in data set [12], 5.5%; in data set [13] it was 51.7%; in [16], 19.7%. The Stability result in data set [3] and in [14] was “Stable” throughout. Also, the negative-log EC50 (pEC50) in data set [11] was 7.15. In data set [15], the CC50 at 48 h is over 100 µM.

`Fc1cc(OCc2ccc(C(F)(F)F)cc2)ccc1-c1nc2ncccn2c1NC1CCCCC1` registered a total exposure AUC(0-inf) in [17] of 33.9 µg·h/mL. The Vz in data set [18] turned out to be 4.226 L/kg. Moreover, the apparent clearance (CL/F) in [19] was 0.77 L/h/kg. Besides, the Stability entry in data set [3] and in data set [14] was “Stable” each time. Besides, the remaining at 1 h, up to 10 µM in data set [5] turned out to be 105%; in [6], 36%; in [7], 60.5%; in data set [8], 104%. Also, the Tmax in [21] stood at 2.67 h. In addition, the negative-log EC50 (pEC50) in data set [11] is 6.33. Besides, the highest level in data set [22] (Cmax) was 2.93 µg/mL. Moreover, the MRT inf in data set [23] was 6.25 h. The half-life in [24] was 3.82 h. In data set [15], the cytotoxic concentration (CC50) at 48 h is over 100 µM.
